Laboratory results reported in US12552783B2, “Modulators of proteolysis and associated methods of use” (Arvinas Operations, Inc., priority 2018, dated 2026).

Legend:
[1] = target: T1, KRas (Homo sapiens, UniProt P01116, G12C); assay: KRas degradation in NCI-H2030 cells by Western blot, normalized to GAPDH (data of Table 14); type: cell-based; set-up: host or cells: NCI-H2030; details: for Dmax: NCI-H2030
Method in brief: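 Readout: GAPDH-normalized KRas immunoblot signal, expressed as percent degradation versus 0.1% DMSO vehicle. Treatment: 0.3, 1, 3 μM after 24 h starvation; 24 h (VHL-based) or 72 h (others).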

[2] = target: T1, KRas; assay: KRas degradation in SW1573 cells by Western blot, normalized to GAPDH (data of Table 14); type: cell-based
Method in brief: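 SW1573 cells, homozygous for the KRas G12C mutation and maintained in DMEM with 10% FBS and 1% penicillin-streptomycin, were seeded in 12-well plates, allowed to attach overnight at 37° C. under 5% CO2, then serum-starved for 24 hours before compound exposure. KRas levels were measured by Western blot, normalized to GAPDH, and compared with DMSO controls to give percent degradation, DC50 and Dmax.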

| Percent Degradation at Indicated Concentration (μM) ([1]; H2030 cells, 0.3 μM) | Percent Degradation at Indicated Concentration (μM) ([1]; H2030 cells, 1 μM) | Percent Degradation at Indicated Concentration (μM) ([1]; H2030 cells, 3 μM) | Dmax ([1]; H2030 cells) [%] | DC50 ([2]; SW1573 cells) [nM] | Dmax ([2]; SW1573 cells) [%] | Percent Degradation at Indicated Concentration (μM) ([2]; SW1573 cells, 0.01 μM) | Percent Degradation at Indicated Concentration (μM) ([2]; SW1573 cells, 0.03 μM) | Percent Degradation at Indicated Concentration (μM) ([2]; SW1573 cells, 0.1 μM) | Percent Degradation at Indicated Concentration (μM) ([2]; SW1573 cells, 0.3 μM) | Percent Degradation at Indicated Concentration (μM) ([2]; SW1573 cells, 1 μM) | Compound | further results |
| --- | --- | --- | --- | --- | --- | --- | --- | --- | --- | --- | --- | --- |
|  |  |  |  |  |  |  |  |  |  |  | C=CC(=O)N1CCN(c2nc(NCCC(=O)N(C)CCOCCOCCOCCOCC(=O)N[C@H](C(=O)N3C[C@H](O)C[C@H]3C(=O)N[C@@H](C)c3ccc(-c4scnc4C)cc3)C(C)(C)C)nc3c(F)c(-c4cc(O)cc5ccccc45)c(Cl)cc23)CC1 (racemic) [compound 196, (2RS,4SR)-1-((RS)-21-((4-(4-acryloylpiperazin-1-yl)-6-chloro-8-fluoro-7-((SR)-3-hydroxynaphthalen-1-yl)quinazolin-2-yl)amino)-2-(tert-butyl)-18-methyl-4,19-dioxo-6,9,12,15-tetraoxa-3,18-diazahenicosanoyl)-4-hydroxy-N-((RS)-1-(4-(4-methylthiazol-5-yl)phenyl)ethyl)pyrrolidine-2-carboxamide] | DC50 ([1]; H2030): ≥ 1000 nM; Percent Degradation at Indicated Concentration (μM) ([1]; H2030, 0.03 μM): C (Percent Degradation: C ≤ 35); Percent Degradation at Indicated Concentration (μM) ([1]; H2030, 0.1 μM): C (Percent Degradation: C ≤ 35); Percent Degradation at Indicated Concentration (μM) ([1]; H2030, 0.3 μM): C (Percent Degradation: C ≤ 35); Percent Degradation at Indicated Concentration (μM) ([1]; H2030, 1 μM): C (Percent Degradation: C ≤ 35); Percent Degradation at Indicated Concentration (μM) ([1]; H2030, 3 μM): C (Percent Degradation: C ≤ 35); Dmax [1]: ≤ 35%; DC50 ([2]; SW1573): ≥ 1000 nM; Dmax ([2]; SW1573): ≤ 35%; Percent Degradation at Indicated Concentration (μM) ([2]; SW1573, 0.03 μM): C (Percent Degradation: C ≤ 35); Percent Degradation at Indicated Concentration (μM) ([2]; SW1573, 0.1 μM): C (Percent Degradation: C ≤ 35); Percent Degradation at Indicated Concentration (μM) ([2]; SW1573, 0.3 μM): C (Percent Degradation: C ≤ 35); Percent Degradation at Indicated Concentration (μM) ([2]; SW1573, 1 μM): C (Percent Degradation: C ≤ 35); Percent Degradation at Indicated Concentration (μM) ([2]; SW1573, 3 μM): C (Percent Degradation: C ≤ 35) |
| C (Percent Degradation: C ≤ 35) | C (Percent Degradation: C ≤ 35) | C (Percent Degradation: C ≤ 35) | ≤ 35 | < 100 | 35 to 70 | C (Percent Degradation: C ≤ 35) | B (35 < B < 70) | B (35 < B < 70) | B (35 < B < 70) | C (Percent Degradation: C ≤ 35) | C=CC(=O)N1CCN(c2nc(O[C@H](C)CN3CCC(OCCOCC(=O)N[C@H](C(=O)N4C[C@H](O)C[C@H]4C(=O)N[C@@H](C)c4ccc(-c5scnc5C)cc4)C(C)(C)C)CC3)nc3c(F)c(-c4cc(O)cc5ccccc45)c(Cl)cc23)CC1 [compound 398, (2S,4R)-1-((2S)-2-(2-(2-((1-((2R)-2-((4-(4-acryloylpiperazin-1-yl)-6-chloro-8-fluoro-7-(3-hydroxynaphthalen-1-yl)quinazolin-2-yl)oxy)propyl)piperidin-4-yl)oxy)ethoxy)acetamido)-3,3-dimethylbutanoyl)-4-hydroxy-N-((S)-1-(4-(4-methylthiazol-5-yl)phenyl)ethyl)pyrrolidine-2-carboxamide] |  |
| C (Percent Degradation: C ≤ 35) | C (Percent Degradation: C ≤ 35) | C (Percent Degradation: C ≤ 35) | ≤ 35 | ≥ 1000 | ≤ 35 | C (Percent Degradation: C ≤ 35) | C (Percent Degradation: C ≤ 35) | C (Percent Degradation: C ≤ 35) | C (Percent Degradation: C ≤ 35) | C (Percent Degradation: C ≤ 35) | C=CC(=O)N1CCN(c2nc(O[C@H](C)CN3CCC(OCCOCCOCCOCC(=O)N[C@H](C(=O)N4C[C@H](O)C[C@H]4C(=O)N[C@@H](C)c4ccc(-c5scnc5C)cc4)C(C)(C)C)CC3)nc3c(F)c(-c4cc(O)cc5ccccc45)c(Cl)cc23)CC1 [compound 400, (2S ,4R)-1-((2S)-14-((1-((2R)-2-((4-(4-acryloylpiperazin-1-yl)-6-chloro-8-fluoro-7-(3-hydroxynaphthalen-1-yl)quinazolin-2-yl)oxy)propyl)piperidin-4-yl)oxy)-2-(tert-butyl)-4-oxo-6,9,12-trioxa-3-azatetradecanoyl)-4-hydroxy-N-((S)-1-(4-(4-methylthiazo1-5-yl)phenyl)ethyl)pyrrolidine-2-carboxamide] |  |
| C (Percent Degradation: C ≤ 35) | C (Percent Degradation: C ≤ 35) | C (Percent Degradation: C ≤ 35) | ≤ 35 | ≥ 1000 | ≤ 35 | C (Percent Degradation: C ≤ 35) | C (Percent Degradation: C ≤ 35) | C (Percent Degradation: C ≤ 35) | C (Percent Degradation: C ≤ 35) | C (Percent Degradation: C ≤ 35) | C=CC(=O)N1CCN(c2nc(O[C@H](C)CN3CCC(OCCOCCOCCOCCOCC(=O)N[C@H](C(=O)N4C[C@H](O)C[C@H]4C(=O)N[C@@H](C)c4ccc(-c5scnc5C)cc4)C(C)(C)C)CC3)nc3c(F)c(-c4cc(O)cc5ccccc45)c(Cl)cc23)CC1 [compound 401, (2S,4R)-1-((2S)-17-((1-((2R)-2-((4-(4-acryloylpiperazin-1-yl)-6-chloro-8-fluoro-7-(3-hydroxynaphthalen-1-yl)quinazolin-2-yl)oxy)propyl)piperidin-4-yl)oxy)-2-(tert-butyl)-4-oxo-6,9,12,15-tetraoxa-3-azaheptadecanoyl)-4-hydroxy-N-((S)-1-(4-(4-methylthiazol-5-yl)phenyl)ethyl)pyrrolidine-2-carboxamide] |  |
| C (Percent Degradation: C ≤ 35) | C (Percent Degradation: C ≤ 35) | C (Percent Degradation: C ≤ 35) | ≤ 35 | ≥ 1000 | ≤ 35 | C (Percent Degradation: C ≤ 35) | C (Percent Degradation: C ≤ 35) | C (Percent Degradation: C ≤ 35) | C (Percent Degradation: C ≤ 35) | C (Percent Degradation: C ≤ 35) | C=CC(=O)N1CCN(c2nc(O[C@H](C)CN3CCC(OCCOCCOCCOCCOCCOCC(=O)N[C@H](C(=O)N4C[C@H](O)C[C@H]4C(=O)N[C@@H](C)c4ccc(-c5scnc5C)cc4)C(C)(C)C)CC3)nc3c(F)c(-c4cc(O)cc5ccccc45)c(Cl)cc23)CC1 [compound 402, (2S,4R)-1-((2S)-20-((1-((2R)-2-((4-(4-acryloylpiperazin-1-yl)-6-chloro-8-fluoro-7-(3-hydroxynaphthalen-1-yl)quinazolin-2-yl)oxy)propyl)piperidin-4-yl)oxy)-2-(tert-butyl)-4-oxo-6,9,12,15,18-pentaoxa-3-azaicosanoyl)-4-hydroxy-N-((S)-1-(4-(4-methylthiazol-5-yl)phenyl)ethyl)pyrrolidine-2-carboxamide] |  |
|  |  |  |  |  |  |  |  |  | C (Percent Degradation: C ≤ 35) | C (Percent Degradation: C ≤ 35) | CN1C[C@H](OCCOCCNc2cccc3c2C(=O)N(C2CCC(=O)NC2=O)C3=O)C[C@H]1COc1nc2c(c(N3CCN(C(N)=O)[C@@H](CC#N)C3)n1)CCN(c1cccc3ccccc13)C2 (stereo partly drawn) [compound 543, (2S)-2-(cyanomethyl)-4-(2-(((2S,4R)-4-(2-(2-((2-(2,6-dioxopiperidin-3-yl)-1,3-dioxoisoindolin-4-yl)amino)ethoxy)ethoxy)-1-methylpyrrolidin-2-yl)methoxy)-7-(naphthalen-1-yl)-5,6,7,8-tetrahydropyrido[3,4-d]pyrimidin-4-yl)piperazine-1-carboxamide] | Percent Degradation at Indicated Concentration (μM) ([2]; SW1573 cells, 3 μM): C (Percent Degradation: C ≤ 35) |
